From publication PMC11356900, “Synthesis, Structural Properties and Biological Activities of Novel Hydrazones of 2-, 3-, 4-Iodobenzoic Acid” (Molecules, 2024)
Converted amounts (≈) assume the structure as drawn.

How the values were obtained:
[1] = tested on: Candida albicans ATCC 10231; assay: Broth microdilution MIC/MFC; type: cell-based; conditions: for MIC: ATCC10231, read-out: MIC
From the text: (§1) Procedures of in vitro antimicrobial assays are described in Supplementary Materials.
(§2) 2. Microbiology – in vitro antimicrobial activity assays […]
(§3) using the broth microdilution method according to the European Committee on Antimicrobial Susceptibility Testing (EUCAST) and Clinical and Laboratory Standards Institute guidelines against a panel of reference and clinical or saprophytic strains of mi croorganisms, including the Gram-positive bacteria: Staphylococcus aureus ATCC 43300 (Methi-cillin Resistant S. aureus – MRSA), Staphylococcus aureus ATCC 29213 (Methicillin Susceptible S. aureus – MSSA), Staph-ylococcus epidermidis ATCC 12228, Micrococcus luteus ATCC 10240, Bacillus subtilis ATCC 6633 and Bacillus cereus ATCC 10876), Gram-negative bacteria: Bordetella bronchiseptica ATCC 4617, Escherichia coli ATCC 25922, Klebsiella pneumoniae ATCC 13883, Proteus mirabilis ATCC 12453, Salmonella typhimurium ATCC 14028 and Pseudomonas aeruginosa ATCC 9027, and fungi belonging to yeasts: Candida albicans ATCC 10231, Candida albicans ATCC 2091, Candida parapsilosis ATCC 22019, Candida glabrata ATCC 90030 and Candida krusei ATCC 14243. The microorganisms belonging to ATCC originated from American Type Culture Collection, routinely used for the evaluation of antimicrobials. All the used microbial cultures were first subcultured on nutrient agar or Sabouraud agar at 35°C for 18-24 h or 30°C for 24-48 h for bacteria […]
(§4) The surface of Mueller-Hinton agar (for bacteria) and RPMI 1640 with MOPS (for fungi) were inoculated with the suspensions of bacterial or fungal species. Microbial suspensions were prepared in sterile saline with an optical density of McFarland standard scale 0.5. The samples containing the compounds were dissolved in dimethyl sulfoxide (DMSO).
(§5) Furthermore, the bacterial and fungal suspensions put onto the Petri dishes with solid media containing 2 mg/mL of the tested compounds followed were incubated at 37°C for 24h and 30°C for 48h for bacteria and fungi, respectively.
(§6) The inhibition of microbial growth was estimated comparing with a control culture prepared without any tested sam- […]
(§7) antifungal compounds, respectively.
(§8) Subsequently, MIC (Minimal Inhibitory Concentration) of the compounds was examined by the microdilution broth method, using their two-fold dilutions in Mueller-Hinton broth (for bacteria) and RPMI 1640 broth with MOPS (for fungi) prepared in the 96-well polystyrene plates. The final concentrations of the compounds ranged from 1000 to 0.488 µg/mL. Microbial suspensions were prepared in 0.85% NaCl with an optical density of 0.5 McFarland standard. Next each bacterial or fungal suspension was added per each well containing broth and various concentrations of the exam-ined compounds. After incubation, the MIC was assessed spectrophotometrically as the lowest concentration of the […]
(§9) Appropriate DMSO, growth and sterile controls were carried out. The medium with no tested substances was used as a control The MBC (Minimal Bactericidal Concentration) and MFC (Minimal Fungicidal Concentration) are defined as the lowest concentration of the compounds that is required to kill a particular bacterial or fungal species. The MBC/MFC was determined by removing the culture used for the MIC determination from each well and spotted onto the appro-priate agar medium. The plates were incubated under appropriate conditions for bacteria and fungi. The lowest com-pounds concentration with no visible growth observed was assessed as a bactericidal/fungicidal concentration. All the experiments were repeated three times and the representative data are presented.
(§10) 1. European Committee for Antimicrobial Susceptibility Testing (EUCAST) Determination of minimum inhibitory con-centrations (MICs) of antibacterial agents by broth dilution. EUCAST discussion document E. Dis 5.1. Clin. Microbiol.
(§11) 2. Clinical and Laboratory Standards Institute. Reference method for broth dilution antifungal susceptibility testing of […]

[2] = tested on: Candida albicans ATCC 2091; assay: Broth microdilution MIC/MFC; type: cell-based; conditions: for MIC: ATCC2091, read-out: MIC
From the text: as §1, §2, §3, §4, §5, §6, §7, §8, §9, §10, §11

[3] = tested on: Candida glabrata ATCC 90030; assay: Broth microdilution MIC/MFC; type: cell-based; conditions: Nakaseomyces glabratus; for MIC: ATCC90030, read-out: MIC
From the text: as §1, §2, §3, §4, §5, §6, §7, §8, §9, §10, §11

[4] = tested on: Candida krusei ATCC 14243; assay: Broth microdilution MIC/MFC; type: cell-based; conditions: Pichia kudriavzevii, ATCC14243, read-out: MIC
From the text: as §1, §2, §3, §4, §5, §6, §7, §8, §9, §10, §11

[5] = tested on: Candida parapsilosis ATCC 22019; assay: Broth microdilution MIC/MFC; type: cell-based; conditions: Lodderomyces parapsilosis; for MFC: ATCC22019, read-out: MFC; for MIC: ATCC22019, read-out: MIC
From the text: as §1, §2, §3, §4, §5, §6, §7, §8, §9, §10, §11

[6] = tested on: Staphylococcus aureus ATCC 25923; assay: Broth microdilution MIC/MBC
[7] = tested on: Staphylococcus aureus ATCC 29213; assay: Broth microdilution MIC/MBC; conditions: ATCC29213
[8] = tested on: Staphylococcus aureus ATCC 43300; assay: Broth microdilution MIC/MBC; conditions: ATCC43300 / MRSA
[9] = tested on: Staphylococcus epidermidis ATCC 12228; assay: Broth microdilution MIC/MBC; conditions: ATCC12228
[10] = tested on: Micrococcus luteus ATCC 10240; assay: Broth microdilution MIC/MBC
[11] = tested on: Bacillus subtilis ATCC 6633; assay: Broth microdilution MIC/MBC; conditions: ATCC6633
[12] = tested on: Bacillus cereus ATCC 10876; assay: Broth microdilution MIC/MBC
[13] = tested on: Bordetella bronchiseptica ATCC 4617; assay: Broth microdilution MIC/MBC; conditions: ATCC4617
[14] = tested on: Klebsiella pneumoniae ATCC 13883; assay: Broth microdilution MIC/MBC; conditions: ATCC13883
[15] = tested on: Proteus mirabilis ATCC 12453; assay: Broth microdilution MIC/MBC; conditions: ATCC12453
[16] = tested on: Escherichia coli ATCC 25922; assay: Broth microdilution MIC/MBC; conditions: ATCC25922
[17] = tested on: Salmonella typhimurium ATCC 14028; assay: Broth microdilution MIC/MBC; conditions: Salmonella enterica
[18] = tested on: Pseudomonas aeruginosa ATCC 9027; assay: Broth microdilution MIC/MBC; conditions: ATCC9027
[19] = Staphylococcus aureus, ATCC25923

MIC [1] | MIC [2] | MIC [3] | MIC [4] | MIC [5] | melting point | MIC [6, 19] | MIC [7] | MIC [8] | MIC [9] | MIC ([10]; Micrococcus luteus, ATCC10240) | MIC [11] | MIC ([12]; Bacillus cereus, ATCC10876) | MIC [13] | MIC [14] | MIC [15] | MIC [16] | MIC [17] | SMILES | MFC [5] | MBC ([10]; Micrococcus luteus, ATCC10240) | also measured
500 µg/mL (≈ 1150 µM) | 1000 µg/mL (≈ 2300 µM) | 250 µg/mL (≈ 575 µM) | > 1000 µg/mL | 1000 µg/mL (≈ 2300 µM) | 281 to 284 °C | > 1000 µg/mL | 1000 µg/mL (≈ 2300 µM) | > 1000 µg/mL | > 1000 µg/mL | 500 µg/mL (≈ 1150 µM) | 500 µg/mL (≈ 1150 µM) | > 1000 µg/mL | > 1000 µg/mL | > 1000 µg/mL | > 1000 µg/mL | > 1000 µg/mL | > 1000 µg/mL | O=C(N/N=C/c1cc(Cl)cc(Cl)c1O)c1ccc(I)cc1 [Compound 24, N-[(3,5-dichloro-2-hydroxyphenyl)methylidene]-4-iodobenzohydrazide] | > 1000 µg/mL | > 1000 µg/mL | MFC ([1]; ATCC10231, read-out: MFC): > 1000 µg/mL; MFC ([2]; ATCC2091, read-out: MFC): > 1000 µg/mL; MFC ([3]; ATCC90030, read-out: MFC): > 1000 µg/mL; MBC [7]: > 2000 µg/mL; MBC [11]: > 1000 µg/mL; MIC [18]: > 1000 µg/mL
> 1000 µg/mL | > 1000 µg/mL | > 1000 µg/mL | > 1000 µg/mL | 250 µg/mL (≈ 954 µM) | 161 to 162 °C | > 1000 µg/mL | > 1000 µg/mL | > 1000 µg/mL | 1000 µg/mL (≈ 3820 µM) | 500 µg/mL (≈ 1910 µM) | 1000 µg/mL (≈ 3820 µM) | > 1000 µg/mL | > 1000 µg/mL | > 1000 µg/mL | > 1000 µg/mL | > 1000 µg/mL | > 1000 µg/mL | NNC(=O)c1ccc(I)cc1 [Compound 6, 4-iodobenzohydrazide] | > 1000 µg/mL | > 1000 µg/mL | MBC [9]: > 1000 µg/mL; MBC [11]: > 1000 µg/mL; MIC [18]: > 1000 µg/mL
– | – | – | – | – | – | 15.6 µg/mL (≈ 65.6 µM) | – | 7.81 µg/mL (≈ 32.8 µM) | 3.91 µg/mL (≈ 16.4 µM) | 62.5 µg/mL (≈ 262 µM) | 3.91 µg/mL (≈ 16.4 µM) | 7.81 µg/mL (≈ 32.8 µM) | 125 µg/mL (≈ 525 µM) | 15.6 µg/mL (≈ 65.6 µM) | 62.5 µg/mL (≈ 262 µM) | 7.81 µg/mL (≈ 32.8 µM) | 31.2 µg/mL (≈ 131 µM) | O=C1CN(/N=C/c2ccc([N+](=O)[O-])o2)C(=O)N1 [NIT, nitrofurantoin, reference compound] | – | 62.5 µg/mL (≈ 262 µM) | MIC ([6]; Staphylococcus aureus ATCC 25923): 15.62 (15.62) µg/mL; MBC [6, 19]: 15.6 µg/mL (≈ 65.6 µM); MBC [9]: 7.81 µg/mL (≈ 32.8 µM); MIC ([10]; Micrococcus luteus ATCC 10240): 62.5 (62.5) µg/mL; MBC [11]: 3.91 µg/mL (≈ 16.4 µM); MBC ([12]; Bacillus cereus ATCC 10876): 15.62 µg/mL (≈ 65.6 µM); MBC ([12]; Bacillus cereus, ATCC10876): 15.6 µg/mL (≈ 65.6 µM)
> 1000 µg/mL | > 1000 µg/mL | > 1000 µg/mL | > 1000 µg/mL | 250 µg/mL (≈ 609 µM) | 200 to 207 °C | > 1000 µg/mL | > 1000 µg/mL | > 1000 µg/mL | 1000 µg/mL (≈ 2440 µM) | 31.2 µg/mL (≈ 76.2 µM) | > 1000 µg/mL | > 1000 µg/mL | > 1000 µg/mL | > 1000 µg/mL | > 1000 µg/mL | > 1000 µg/mL | > 1000 µg/mL | CCOc1cccc(/C=N/NC(=O)c2ccc(I)cc2)c1O [Compound 25, N-[(3-ethoxy-2-hydroxyphenyl)methylidene]-4-iodobenzohydrazide] | > 1000 µg/mL | 62.5 µg/mL (≈ 152 µM) | MBC [9]: > 1000 µg/mL; MIC [18]: > 1000 µg/mL
